According to patent US20240327380A1, “BTK INHIBITORS” (BIOGEN MA INC., priority 2020, published 2024):

These compounds were tested against T1, active BTK enzyme (Upstate 14-552) (Homo sapiens, UniProt Q06187) (assay: In Vitro BTK Kinase Assay: Btk-PolyGAT-LS Assay). Conditions: ATP 10 μM, polyGAT 100 nM, BTK 0.25 nM, 30 minutes, TRF readout.
T1 construct: purchased Upstate 14-552
Type: biochemical
Method: In Vitro BTK Kinase Assay: Btk-PolyGAT-LS Assay The purpose of the BTK in vitro assay is to determine compound potency against BTK through the measurement of IC50. Compound inhibition is measured after monitoring the amount of phosphorylation of a fluorescein-labeled polyGAT peptide (Invitrogen PV3611) in the presence of active BTK enzyme (Upstate 14-552), ATP, and inhibitor. The BTK kinase reaction was done in a black 96 well plate (costar 3694). For a typical assay, a 24 μL aliquot of a ATP/peptide master mix (final concentration; ATP 10 μM, polyGAT 100 nM) in kinase buffer (10 mM Tris-HCl pH 7.5, 10 mM MgCl2, 200 μM […], 5 mM DTT, 0.01% Triton X-100, and 0.2 mg/ml casein) is added to each well. Next, […] of a 4-fold, 40× compound titration in 100% DMSO solvent is added, followed by adding 15 μL of BTK enzyme mix in 1× kinase buffer (with a final concentration of 0.25 nM). The assay is incubated for 30 minutes before being stopped with 28 μL of a 50 mM EDTA solution. Aliquots (5 μL) of the kinase reaction are transferred to a low volume white 384 well plate (Coming 3674), and 5 μL of a 2× detection buffer (Invitrogen PV3574, with 4 nM Tb-PY20 antibody, Invitrogen PV3552) is added. The plate is covered and incubated for 45 minutes at room temperature. Time resolved fluorescence (TRF) on Molecular Devices M5 (332 nm excitation; 488 nm emission; 518 nm fluorescein emission) is measured. IC50 values are calculated using a four parameter fit with 100% enzyme activity determined from the DMSO control and 0% activity from the EDTA control.

T1 sequence (Q06187 whole entry): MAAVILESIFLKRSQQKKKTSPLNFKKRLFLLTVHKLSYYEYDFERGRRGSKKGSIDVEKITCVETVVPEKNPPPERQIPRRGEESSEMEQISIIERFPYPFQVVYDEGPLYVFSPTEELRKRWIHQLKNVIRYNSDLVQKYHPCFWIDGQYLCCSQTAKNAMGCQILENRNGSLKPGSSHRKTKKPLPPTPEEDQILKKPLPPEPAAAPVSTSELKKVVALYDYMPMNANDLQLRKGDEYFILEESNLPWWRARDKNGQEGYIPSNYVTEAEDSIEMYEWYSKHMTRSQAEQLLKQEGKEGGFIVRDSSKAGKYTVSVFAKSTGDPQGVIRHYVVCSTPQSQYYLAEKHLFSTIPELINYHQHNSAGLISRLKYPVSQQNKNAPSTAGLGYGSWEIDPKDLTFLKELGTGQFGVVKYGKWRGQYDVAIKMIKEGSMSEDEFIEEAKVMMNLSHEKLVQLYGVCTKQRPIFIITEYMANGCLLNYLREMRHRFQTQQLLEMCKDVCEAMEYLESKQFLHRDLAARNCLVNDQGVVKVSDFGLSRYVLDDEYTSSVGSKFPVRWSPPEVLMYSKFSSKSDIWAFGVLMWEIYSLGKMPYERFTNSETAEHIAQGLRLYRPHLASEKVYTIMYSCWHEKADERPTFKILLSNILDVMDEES

SMILES | IC50 [nM]
Cc1cc(-c2ccncc2N2CCN(C(=O)C3=CCC3)CC2)ccc1CNC(=O)c1noc(C(C)(C)C)n1 [Example 57, 5-(tert-butyl)-N-(4-(3-(4-(cyclobut-1-ene-1-carbonyl)piperazin-1-yl)pyridin-4-yl)-2-methylbenzyl)-1,2,4-oxadiazole-3-carboxamide] | ≤ 1
Cc1cc(-c2ccncc2N2CCN(C(=O)/C=C/CN3CCC3)CC2)ccc1CNC(=O)c1noc(C(C)(C)C)n1 [Example 66, (E)-N-(4-(3-(4-(4-(azetidin-1-yl)but-2-enoyl)piperazin-1-yl)pyridin-4-yl)-2-methylbenzyl)-5-(tert-butyl)-1,2,4-oxadiazole-3-carboxamide] | 1 to 10
C#CC(=O)N1CCN(c2cnccc2-c2ccc(CNC(=O)c3noc(C(C)(C)C)n3)c(C)c2)CC1 [Example 60, 5-(tert-butyl)-N-(2-methyl-4-(3-(4-propioloylpiperazin-1-yl)pyridin-4-yl)benzyl)-1,2,4-oxadiazole-3-carboxamide] | ≤ 1
CN(C)C/C=C/C(=O)N1CCN(c2cnccc2-c2ccc(CNC(=O)c3noc(C4(C)CC4)n3)c(C(F)F)c2)CC1 [Example 88, (E)-N-(2-(difluoromethyl)-4-(3-(4-(4-(dimethylamino)but-2-enoyl)piperazin-1-yl)pyridin-4-yl)benzyl)-5-(1-methylcyclopropyl)-1,2,4-oxadiazole-3-carboxamide] | 1 to 10
CN(C)C/C=C/C(=O)N1CCN(c2cnccc2-c2ccc(CNC(=O)c3noc(C(C)(C)C)n3)c(C(F)F)c2)CC1 [Example 87, (E)-5-(tert-butyl)-N-(2-(difluoromethyl)-4-(3-(4-(4-(dimethylamino)but-2-enoyl)piperazin-1-yl)pyridin-4-yl)benzyl)-1,2,4-oxadiazole-3-carboxamide] | ≤ 1
Cc1cc(-c2ccncc2N2CCN(C(=O)/C=C/CN(C)C)CC2)ccc1CNC(=O)c1noc(C2(CF)CC2)n1 [Example 93, (E)-N-(4-(3-(4-(4-(dimethylamino)but-2-enoyl)piperazin-1-yl)pyridin-4-yl)-2-methylbenzyl)-5-(1-(fluoromethyl)cyclopropyl)-1,2,4-oxadiazole-3-carboxamide] | ≤ 1
Cc1cc(-c2ccncc2N2CCN(C(=O)/C=C/CN(C)C)C(C)C2)ccc1CNC(=O)c1noc(C(C)(C)C)n1 (centres unmarked) [Example 74, (E)-5-(tert-butyl)-N-(4-(3-(4-(4-(dimethylamino)but-2-enoyl)-3-methylpiperazin-1-yl)pyridin-4-yl)-2-methylbenzyl)-1,2,4-oxadiazole-3-carboxamide] | ≤ 1
C=C(F)C(=O)N1CCN(c2cncnc2-c2ccc(CNC(=O)c3noc(C(C)(C)C)n3)c(C)c2)CC1 [Example 81, 5-(tert-butyl)-N-(4-(5-(4-(2-fluoroacryloyl)piperazin-1-yl)pyrimidin-4-yl)-2-methylbenzyl)-1,2,4-oxadiazole-3-carboxamide] | 1 to 10
CN(C)C/C=C/C(=O)N1CCN(c2cnccc2-c2ccc(CNC(=O)c3noc(C4(C)CC4)n3)c(C(F)(F)F)c2)CC1 [Example 91, (E)-N-(4-(3-(4-(4-(dimethylamino)but-2-enoyl)piperazin-1-yl)pyridin-4-yl)-2-(trifluoromethyl)benzyl)-5-(1-methylcyclopropyl)-1,2,4-oxadiazole-3-carboxamide] | ≤ 1
C=CC(=O)N1CCN(c2cnccc2-c2ccc(CNC(=O)c3noc(C4(CF)CC4)n3)c(C)c2)CC1 [Example 98, N-(4-(3-(4-acryloylpiperazin-1-yl)pyridin-4-yl)-2-methylbenzyl)-5-(1-(fluoromethyl)cyclopropyl)-1,2,4-oxadiazole-3-carboxamide] | ≤ 1
Cc1cc(-c2ccncc2N2CCN(C(=O)/C=C/C(F)(F)F)CC2)ccc1CNC(=O)c1noc(C(C)(C)C)n1 [Example 58, (E)-5-(tert-butyl)-N-(2-methyl-4-(3-(4-(4,4,4-trifluorobut-2-enoyl)piperazin-1-yl)pyridin-4-yl)benzyl)-1,2,4-oxadiazole-3-carboxamide] | ≤ 1
Cc1cc(-c2ccncc2N2CCN(C(=O)/C=C/CN(C)C)CC2)ccc1CN1CCc2c(cnn2C(C)(C)C)C1=O [Example 72, (E)-1-(tert-butyl)-5-(4-(3-(4-(4-(dimethylamino)but-2-enoyl)piperazin-1-yl)pyridin-4-yl)-2-methylbenzyl)-1,5,6,7-tetrahydro-4H-pyrazolo[4,3-c]pyridin-4-one] | ≤ 1
C=CC(=O)N1CCN(c2cncnc2-c2ccc(CNC(=O)c3nc(C4(C)CC4)no3)c(C)c2)CC1 [Example 84, N-(4-(5-(4-acryloylpiperazin-1-yl)pyrimidin-4-yl)-2-methylbenzyl)-3-(1-methylcyclopropyl)-1,2,4-oxadiazole-5-carboxamide] | ≤ 1

Further lines, results first:

IC50 [nM] | SMILES
> 10 | C=CC(=O)N1CCC[C@@H](c2cnccc2-c2ccc(CNC(=O)c3cc(C(C)(C)C)on3)c(C)c2)C1 (single isomer, unassigned) [Example 34]
> 10 | C=CC(=O)N1CCC[C@@H](c2cnccc2-c2ccc(CNC(=O)c3cn(C(C)(C)C)nn3)c(C)c2)C1 (single isomer, unassigned) [Example 25]
≤ 1 | C=CC(=O)N1CCN(c2cncnc2-c2ccc(CNC(=O)c3noc(C(C)(C)C)n3)c(C)c2)CC1 [Example 80, N-(4-(5-(4-acryloylpiperazin-1-yl)pyrimidin-4-yl)-2-methylbenzyl)-5-(tert-butyl)-1,2,4-oxadiazole-3-carboxamide]
1 to 10 | C=CC(=O)N(C)CC1CCCN(c2cnccc2-c2ccc(CNC(=O)c3noc(C(C)(C)C)n3)c(C)c2)C1 (centres unmarked) [Example 21, 5-(tert-butyl)-N-(2-methyl-4-(3-(3-((N-methylacrylamido)methyl)piperidin-1-yl)pyridin-4-yl)benzyl)-1,2,4-oxadiazole-3-carboxamide]
≤ 1 | C=CC(=O)N1CCN(c2cncnc2-c2ccc(CNC(=O)c3cn(C(C)(C)C)nn3)c(C)c2)CC1 [Example 50, N-(4-(5-(4-acryloylpiperazin-1-yl)pyrimidin-4-yl)-2-methylbenzyl)-1-(tert-butyl)-1H-1,2,3-triazole-4-carboxamide]
≤ 1 | Cc1cc(-c2c(F)cncc2N2CCN(C(=O)/C=C/CN(C)C)CC2)ccc1CNC(=O)c1nc(C(C)(C)C)no1 [Example 78, (E)-3-(tert-butyl)-N-(4-(3-(4-(4-(dimethylamino)but-2-enoyl)piperazin-1-yl)-5-fluoropyridin-4-yl)-2-methylbenzyl)-1,2,4-oxadiazole-5-carboxamide]
> 10 | C=CC(=O)N1CC2CC1CN(c1cnccc1-c1ccc(CNC(=O)c3cc(C(C)(C)C)on3)c(C)c1)C2 (centres unmarked) [Example 55, 5-tert-butyl-N-[[2-methyl-4-[3-(6-prop-2-enoyl-3,6-diazabicyclo[3.2.1]octan-3-yl)-4-pyridyl]phenyl]methyl]isoxazole-3-carboxamide]
≤ 1 | C=CC(=O)N(C)C1CCN(c2cncnc2-c2ccc(CNC(=O)c3cn(C(C)(C)C)nn3)c(C)c2)C1 (centres unmarked) [Example 9, 1-(tert-butyl)-N-(2-methyl-4-(5-(3-(N-methylacrylamido)pyrrolidin-1-yl)pyrimidin-4-yl)benzyl)-1H-1,2,3-triazole-4-carboxamide]
> 10 | C=CC(=O)N1CC2(CCN(c3cnccc3-c3ccc(CNC(=O)c4noc(C(C)(C)C)n4)c(C)c3)C2)C1 [Example 7, N-(4-(3-(2-acryloyl-2,6-diazaspiro[3.4]octan-6-yl)pyridin-4-yl)-2-methylbenzyl)-5-(tert-butyl)-1,2,4-oxadiazole-3-carboxamide]
> 10 | C=CC(=O)N1CCC2(CCN(c3cnccc3-c3ccc(CNC(=O)c4cn(C(C)(C)C)nn4)c(C)c3)C2)C1 (centres unmarked) [Example 4, N-(4-(3-(7-acryloyl-2,7-diazaspiro[4.4]nonan-2-yl)pyridin-4-yl)-2-methylbenzyl)-1-(tert-butyl)-1H-1,2,3-triazole-4-carboxamide]
> 10 | C=CC(=O)N(C)C1CCCN(c2cnccc2-c2ccc(CNC(=O)c3cn(C(C)(C)C)nn3)c(C)c2)C1=O (centres unmarked) [Example 10, 1-(tert-butyl)-N-(2-methyl-4-(3-(3-(N-methylacrylamido)-2-oxopiperidin-1-yl)pyridin-4-yl)benzyl)-1H-1,2,3-triazole-4-carboxamide]
≤ 1 | C=CC(=O)N(C)[C@@H]1CCCN(c2cncc(C#N)c2-c2ccc(CNC(=O)c3cn(C(C)(C)C)nn3)c(C)c2)C1 [Example 48, (R)-1-(tert-butyl)-N-(4-(3-cyano-5-(3-(N-methylacrylamido)piperidin-1-yl)pyridin-4-yl)-2-methylbenzyl)-1H-1,2,3-triazole-4-carboxamide]
> 10 | C=CC(=O)N(C)C1CCN(c2cnccc2-c2ccc(CNC(=O)c3cn(C(C)(C)C)nn3)c(C)c2)C1=O (centres unmarked) [Example 11, 1-(tert-butyl)-N-(2-methyl-4-(3-(3-(N-methylacrylamido)-2-oxopyrrolidin-1-yl)pyridin-4-yl)benzyl)-1H-1,2,3-triazole-4-carboxamide]
